Measured values: paper PMC3365038, “Optimization of a Novel Peptide Ligand Targeting Human Carbonic Anhydrase IX” (PLoS ONE, 2012)
Read-outs that look alike come from different tables or passages of the source. Values belong to the molecule of their own block, whether it stands above or below them. Peptide text beside a SMILES is read from it.

Columns and labels:
SKRC 52 cells [1] = assay type: binding, human; conditions: for inhibition of the radioligand binding: 10^−4 mol/L competitor concentration; for inhibition of the radioligand binding / binding inhibition: 125I-CaIX-P1-4-10 on SKRC 52 cells; for binding inhibition: competitor concentration of 10^−5 mol/L
Procedure: (§1) For binding experiments 5×10^5 SKRC 52 or BxPC3 cells were seeded into 6-well plates and cultivated in 3 mL of incubation medium at 37°C for 24 h. After cell blocking with RPMI 1640 (without FCS) containing 1% BSA, the medium was replaced with 1 mL of fresh medium (without FCS) containing 0.8–1.2×10^6 cpm of ^125I-labeled peptide and incubation was performed for time periods varying from 10 min to 2 h at 37°C. To determine specific versus nonspecific binding, the cells were incubated with unlabeled competitors at concentrations varying from 10^−4 to 10^−10 mol/L. Octreotide was used as negative control competitor. After incubation the medium was removed and the cells were washed three times with 1 mL ice cold PBS in order to remove the unbound radiolabeled peptide. Subsequently, the cells were lysed with 0.5 mL NaOH 0.3 mol/L and the radioactivity was measured with a γ-counter. Bound radioactivity was calculated as percentage applied dose per 10^6 cells. CA IX negative BxPC3 cells were used as negative control.

Serum stability assay = assay type: in vitro ADME; conditions: radiolabeled peptide 5 MBq in 500 µL human serum (Sigma Aldrich, H4522), 37°C, aliquots by radio-HPLC
Procedure: (§2) Radio-HPLC was performed on an Agilent 1100 HPLC system equipped with a radioactivity detector (GABI Star, Raytest GmbH, Straubenhardt, Germany) using a Chromolith Performance RP-18e column (100×3 mm; Merck AG Darmstadt, Germany) eluted with a linear gradient (eluent A: 0.1% TFA in water; eluent B: 0.1% TFA in acetonitrile; 0–30% B in 10 min, flow rate: 2 mL/min).
Metabolic stability was investigated in human serum (Sigma Aldrich, H4522). 5 MBq of radiolabeled peptide was dissolved in human serum (500 µL) and incubated at 37°C. The stability of the labeled peptide was monitored by analyzing aliquots (25 µl) via radio-HPLC at selected time points.

[2] = system: CA IX positive human renal cell carcinoma SKRC 52 cells; experiment: In vitro binding of 125I-labeled peptides on SKRC 52 cells; conditions: for binding capacity on SKRC 52 cells compared to the native CaIX-P1 peptide: 125I-labeled fragments, result in words; for binding after 10 minutes compared to 30 minutes incubation: 125I-labeled peptides
Procedure: as §1

BxPC3 cells = experiment: In vitro (medium) stability of 125I-labeled peptide on BxPC3 cells; assay type: in vitro ADME, human; conditions: 37°C, 10 min to 2 h, supernatant by radio-HPLC
Procedure: as §2
(§3) ^125I-labeled peptide was incubated at 37°C on SKRC 52 and BxPC3 cells. At time points varying from 10 min to 2 h aliquots were taken and centrifuged for 5 min at 13,000 rpm. The supernatant was analyzed by HPLC with H2O∶CH3CN, 0–30% in 10 min.

SKRC 52 cells [3] = experiment: In vitro (medium) stability of 125I-labeled peptide on SKRC 52 cells; assay type: in vitro ADME, human
Procedure: as §2, §3

in vivo = experiment: in vivo; parameters: species or system Balb/c nu/nu mice; conditions: female, Balb/c nu/nu, mouse, iv, 1 MBq, total radioactivity, Tumor to organ ratio
Procedure: Organ distribution studies were performed in 9-week-old female Balb/c nu/nu mice, carrying subcutaneously transplanted SKRC 52 tumors. Animals were obtained from Charles River WIGA and housed in VentiRacks (BioZone Global). For tumor transplantation, SKRC 52 cells were grown to 90% confluence, harvested with PBS/ethylene diamine tetraacetic acid, resuspended in Falcon Matrigel-Matrix (BD) and kept on ice. 200 µl of Matrigel-Matrix cell suspension were injected subcutaneously into the anterior region of the mouse trunk and the tumors were grown to a size of 1.0 cm^3. ^131I-labeled CaIX-P1-4-10 was injected into the tail vein of the animals (approximately 1 MBq) and at 15 min, 60 min and 240 min after injection the animals were sacrificed. Tumor, blood and selected tissues (heart, spleen, liver, kidney, muscle, intestinum and brain) were removed, drained of blood, weighed and the radioactivity was measured in a γ-counter (LB 951G; Berthold Technologies). Also 3 aliquots of the tracer solution used for injection were measured. The organ uptake was calculated as percentage injected dose per gram tissue (% ID/g).

IC50 (SKRC 52 cells [1]; 24 h): 130 nM
Serum half life (Serum stability assay): 1.5 h
radioligand degradation in medium on BxPC3 cells (BxPC3 cells): No radioligand degradation
degradation in medium at 120 min (SKRC 52 cells [3]; 125I-labeled peptide on SKRC 52 cells, 37°C, 120 min incubation, supernatant by radio-HPLC): completely degraded
activity (intact radioligand) measured in medium (SKRC 52 cells [3]; 125I-labeled peptide on SKRC 52 cells, 37°C, after 60 min incubation, supernatant by radio-HPLC): 30%
degradation site in the sequence (SKRC 52 cells [3]; comparison of HPLC chromatograms of C-terminal fragments with SKRC 52 cell medium supernatants): degraded between ^6S and ^7P
Molecule: CC(C)C[C@H](NC(=O)[C@@H]1CCCN1C(=O)[C@@H](NC(=O)[C@H](Cc1c[nH]cn1)NC(=O)[C@@H](N)CC(N)=O)C(C)C)C(=O)N[C@@H](CO)C(=O)N1CCC[C@H]1C(=O)N[C@H](Cc1ccc(O)cc1)C(N)=O [CaIX-P1-4-10] (HELM PEPTIDE1{N.H.V.P.L.S.P.[dY].[am]}$$$$V2.0; N-terminus assumed)
inhibition of the radioligand binding (SKRC 52 cells [1]): over 95%
binding inhibition (SKRC 52 cells [1]): about 95%
binding capacity on SKRC 52 cells compared to the native CaIX-P1 peptide [2]: almost six-fold binding

tissue to tissue ratio at 0.25 h (in vivo; Blood): 0.63
tissue to tissue ratio at 1 h (in vivo; Blood): 0.69
tissue to tissue ratio at 4 h (in vivo; Blood): 0.67
tissue to tissue ratio at 0.25 h (in vivo; Brain): 13.9
tissue to tissue ratio at 1 h (in vivo; Brain): 14.9
tissue to tissue ratio at 4 h (in vivo; Brain): 15.1
tissue to tissue ratio at 0.25 h (in vivo; Heart): 1.63
tissue to tissue ratio at 1 h (in vivo; Heart): 2.09
tissue to tissue ratio at 4 h (in vivo; Heart): 1.84
tissue to tissue ratio at 0.25 h (in vivo; Kidney): 0.56
tissue to tissue ratio at 1 h (in vivo; Kidney): 0.73
tissue to tissue ratio at 4 h (in vivo; Kidney): 0.61
tissue to tissue ratio at 0.25 h (in vivo; Liver): 1.32
tissue to tissue ratio at 1 h (in vivo; Liver): 1.65
tissue to tissue ratio at 4 h (in vivo; Liver): 1.49
tissue to tissue ratio at 0.25 h (in vivo; Lung): 0.86
tissue to tissue ratio at 1 h (in vivo; Lung): 0.88
tissue to tissue ratio at 4 h (in vivo; Lung): 0.92
tissue to tissue ratio at 0.25 h (in vivo; Muscle): 3.36
tissue to tissue ratio at 1 h (in vivo; Muscle): 3.39
tissue to tissue ratio at 4 h (in vivo; Muscle): 2.53
tissue to tissue ratio at 0.25 h (in vivo; Spleen): 1.06
tissue to tissue ratio at 1 h (in vivo; Spleen): 1.39
tissue to tissue ratio at 4 h (in vivo; Spleen): 1.35
Molecule: CC(C)C[C@H](NC(=O)[C@@H]1CCCN1C(=O)[C@@H](NC(=O)[C@H](Cc1c[nH]cn1)NC(=O)[C@@H](N)CC(N)=O)C(C)C)C(=O)N[C@@H](CO)C(=O)N1CCC[C@H]1C(=O)N[C@H](Cc1ccc(O)c(I)c1)C(N)=O [^131I-CaIX-P1-4-10] (HELM PEPTIDE1{N.H.V.P.L.S.P.[O=C([C@@H](Cc1ccc(O)c(I)c1)N[*:1])[*:2]].[am]}$$$$V2.0; N-terminus assumed)

Molecule: HVPLSPKy [CaIX-P1-5-12]
binding capacity on SKRC 52 cells compared to the native CaIX-P1 peptide [2]: significantly reduced binding activity

Molecule: TNHVPLSPy [CaIX-P1-3-10, fragment representing the middle part of CaIX-P1 (TNHVPLSPy)]
binding capacity on SKRC 52 cells compared to the native CaIX-P1 peptide [2]: up to five-fold higher binding capacity
binding after 10 minutes compared to 30 minutes incubation [2]: higher after 10 minutes as compared to 30 minutes incubation

Molecule: YNTNHVPL [CaIX-P1-1-8, 8-amino acid fragment of CaIX-P1 (YNTNHVPL)]
binding capacity on SKRC 52 cells compared to the native CaIX-P1 peptide [2]: significantly reduced binding activity

IC50 (SKRC 52 cells [1]; unlabeled competitor against 125I-CaIX-P1-4-10 on SKRC 52 cells, read-out: IC50): 1500 nM
Molecule: YNTNHVPLSPKY [CaIX-P1]
inhibition of the radioligand binding (SKRC 52 cells [1]): over 95%
binding inhibition (SKRC 52 cells [1]): about 80%
binding after 10 minutes compared to 30 minutes incubation [2]: higher after 10 minutes as compared to 30 minutes incubation
